What is called IC50 is the concentration needed to halve the response being measured. Low values mean greater potency, high ones weaker potency.

The text below walks through data of US5705504A, “Piperidine derivatives with PAF antagonist activity” (J. Uriach & Cia, S.A., priority 1994, dated 1998).

In assay [1] the test system is Platelet Aggregation Induced by PAF (platelet rich plasma). The assay can be described thus: Inhibition of Platelet Aggregation Induced by PAF. Conditions: rabbit platelet rich plasma, aggregation induced by C18-PAF (15 nM). It counts as cell-based, male New Zealand rabbits. On the procedure: Inhibition of Platelet Aggregation Induced by PAF.
Platelet rich plasma (PRP) was prepared by centrifuging the blood at 250 xg for 10 min. at 4° C. The PRP was diluted with platelet-poor plasma (PPP) obtained by further centrifuging at 3000 xg for 10 min. The platelet count was adjusted to 3×10^5cells/mm^3.

In assay [2] the test system is PAF-induced Hypotension. Nature of the assay: Inhibition of PAF-induced Hypotension in Normotensive Rats. It is filed as in vivo, male Sprague-Dawley rats. Conditions: anesthetized normotensive rats, i.v. 3 min. before PAF (0.5 μg/Kg), dose inhibiting hypotension by 50%; for ED50: Rattus norvegicus, iv, 0.05 h, read-out: ID50 (the source's name). The method, then: Inhibition of PAF-induced Hypotension in Normotensive Rats.
Male Sprague-Dawley rats, weighing 180-220 g, were anesthetized with sodium pentobarbital (50 mg/Kg i.p.). Blood pressure was recorded from the left carotid artery using a Statham pressure transducer coupled to a Beckman R611 recorder. Right and left fernoral veins were catheterized to inject test compounds and PAF (0.5 μg/Kg). Test compounds were administered by intravenous injection (1 mL/Kg, dissolved in saline) 3 min. before PAF. Blood pressure was monitored and percent inhibition of PAF-induced hypotension with respect to controls was calculated.

In turn, `Cc1nc2cnccc2n1CC1CCN(S(=O)(=O)CC(C)(C)c2ccccc2)CC1` [Compound 61, 1-[[1-[(2-Methyl-2-phenylpropyl)sulfonyl]-4-piperidyl]methyl]-1H-2-methylimidazo[4,5-c]pyridine] yielded an IC50 in assay [1] (Oryctolagus cuniculus) of 6.2 nM. In other words, the single-digit nanomolar range.

`Cc1nc2cnccc2n1CC1CCN(C(=O)/C=C(\c2ccccc2)c2ccc(N)cc2)CC1` [Compound 17b, trans-1-[[1-[3-(4-Aminophenyl)-3-phenylpropenoyl]-4-piperidyl]methyl]-1H-2-methylimidazo[4,5-c]pyridine] came in with an IC50 in assay [1] of 5 nM. In assay [2], this molecule registered an ID50 of 0.01 to 0.025 mg/kg.

Consider `Cc1nc2cnccc2n1CC1CCN(C(=O)CC(O)(c2ccccc2)C(F)(F)F)CC1` (stereo not drawn) [Compound 47], for which inhibition in assay [1] (Oryctolagus cuniculus) was half-maximal at 36 nM (IC50). For the same molecule, the ED50 in assay [2] worked out at 0.013 mg/kg.

`CCOC(=O)[C@@H](NC(=O)N1CCC(Cn2c(C)nc3cnccc32)CC1)c1ccccc1` [Compound 39, (S)-1-[[1-[[N-(1-Ethoxycarbonyl-1-phenylmethyl)amino]carbonyl]-4-piperidyl]methyl]-1H-2-methylimidazo[4,5-c]pyridine] returned an IC50 in assay [1] (Oryctolagus cuniculus) of 16 nM.

`Cc1nc2cnccc2n1CC1CCN(C(=O)CC(c2ccccc2)c2ccccc2)CC1` [Compound 1, 1-[[1-(3,3-Diphenylpropionyl)-4-piperidyl]methyl]-1H-2-methylimidazo[4,5-c]pyridine]: the IC50 in assay [1] (Oryctolagus cuniculus) amounted to 7.6 nM. Also, in assay [2], the ED50 came out at 0.0086 mg/kg.

`Cc1nc2cnccc2n1CC1CCN(C(=O)N[C@H](C)c2ccccc2)CC1` [Compound 50, (R)-1-[[1-[(1-Phenylethylamino)carbonyl]-4-piperidyl]methyl]-1H-2-methylimidazo[4,5-c]pyridine] came in with an IC50 in assay [1] (Oryctolagus cuniculus) of 13 nM. Moreover, the ED50 in assay [2] came out at 0.017 mg/kg.

As for `Cc1nc2cnccc2n1CC1CCN(C(=O)CC(C)(O)c2ccccc2)CC1` (stereo not drawn) [Compound 21, 1-[[1-(3-Hydroxy-3-phenylbutanoyl)-4-piperidyl]methyl]-1H-2-methylimidazo[4,5-c]pyridine], inhibition in assay [1] (Oryctolagus cuniculus) was half-maximal at 6.9 nM (IC50). Further, the ED50 in assay [2] is 0.043 mg/kg.

Consider `Cc1nc2cnccc2n1CC1CCN(C(=O)CC(C)(C)c2ccccc2)CC1` [Compound 41, 1-[[1-(3-Methyl-3-phenylbutanoyl)-4-piperidyl]methyl]-1H-2-methylimidazo[4,5-c]pyridine], for which it took 6.7 nM to reach half-maximal inhibition in assay [1] (Oryctolagus cuniculus) (IC50). Besides, the ED50 in assay [2] is 0.012 mg/kg.

Molecule `Cc1nc2cnccc2n1CC1CCN(C(=O)CC(C)c2ccccc2)CC1` (stereo not drawn) [Compound 40, 1-[[1-(3-Phenylbutanoyl)-4-piperidyl]methyl]-1H-2-methylimidazo[4,5-c]pyridine] registered a 50% inhibitory concentration (IC50) in assay [1] (Oryctolagus cuniculus) of 12 nM. Moreover, in assay [2], the ED50 was 0.033 mg/kg.

Turning to `Cc1nc2cnccc2n1CC1CCN(C(=O)NC2(c3ccccc3)CC2)CC1` [Compound 59, 1-[[1-[(1-Phenyl-1-cyclopropylamino)carbonyl]-4-piperidyl]methyl]-1H-2-methylimidazo[4,5-c]pyridine], half-maximal inhibition in assay [1] (Oryctolagus cuniculus) (IC50) required 17 nM. Besides, in assay [2], the ED50 is 0.021 mg/kg.

Regarding `Cc1nc2cnccc2n1CC1CCN(C(=O)C=C(c2ccccc2)c2cccc(N)c2)CC1` [Compound 30, cis and trans-1-[[1-[3-(3-Aminophenyl)-3-phenylpropenoyl]-4-piperidyl]methyl]-1H-2-methylimidazo[4,5-c]pyridine], the ED50 in assay [2] came out at 0.015 mg/kg.

In assay [1] (Oryctolagus cuniculus), `Cc1nc2cnccc2n1CC1CCN(C(=O)CC(C)(C)c2ccc(N)cc2)CC1` [Compound 44, 1-[[1-[3-(4-Aminophenyl)-3-methylbutanoyl]-4-piperidyl]methyl]-1H-2-methylimidazo[4,5-c]pyridine] displayed an IC50 of 19 nM.

Regarding `Cc1nc2cnccc2n1CC1CCN(C(=O)C=C(c2ccccc2)c2ccc([N+](=O)[O-])cc2)CC1` [Compound 16, cis and trans-1-[[1-[3-(4-Nitrophenyl)-3-phenylpropenoyl]-4-piperidyl]methyl]-1H-2-methylimidazo[4,5-c]pyridine], 9.2 nM corresponded to half-maximal inhibition in assay [1] (Oryctolagus cuniculus) (IC50). This IC50 is about 2.1-fold lower than that of the molecule before.

In assay [1] (Oryctolagus cuniculus), `Cc1nc2cnccc2n1CC1CCN(C(=O)OCC2(c3ccccc3)CC2)CC1` [Compound 70, 1-[[1-[[(1-Phenyl-1-cyclopropyl)methoxy]carbonyl]-4-piperidyl]methyl]-1H-2-methylimidazo[4,5-c]pyridine] showed a half-inhibitory concentration (IC50) of 34 nM. The ED50 in assay [2] amounted to 0.014 mg/kg.

For the molecule `Cc1nc2cnccc2n1CC1CCN(C(=O)/C=C(/c2ccccc2)c2ccc(N)cc2)CC1` [Compound 17a, cis-1-[[1-[3-(4-Aminophenyl)-3-phenylpropenoyl]-4-piperidyl]methyl]-1H-2-methylimidazo[4,5-c]pyridine], the IC50 in assay [1] amounted to 18 nM. The molecule further showed an ID50 in assay [2] of 0.029 mg/kg.

Regarding `Cc1nc2cnccc2n1CC1CCN(C(=O)CC(C)c2ccc(N)cc2)CC1` (stereo not drawn) [Compound 23, 1-[[1-[3-(4-Aminophenyl)butanoyl]-4-piperidyl]methyl]-1H-2-methylimidazo[4,5-c]pyridine], the IC50 in assay [1] (Oryctolagus cuniculus) is 11 nM. That is a double-digit nanomolar value.

In assay [1] (Oryctolagus cuniculus), `CCCC(CC(=O)N1CCC(Cn2c(C)nc3cnccc32)CC1)c1ccccc1` (stereo not drawn) [Compound 32, 1-[[1-(3-Phenylhexanoyl)-4-piperidyl]methyl]-1H-2-methylimidazo[4,5-c]pyridine] gave an IC50 of 11 nM. Further, the ED50 in assay [2] turned out to be 0.0079 mg/kg.

`CCOC[C@@H](NC(=O)N1CCC(Cn2c(C)nc3cnccc32)CC1)c1ccccc1` [Compound 60, (S)-1-[[1-[(2-Ethoxy-1-phenylethylamino)carbonyl]-4opiperidyl]methyl]-1H-2-methylimidazo[4,5-c]pyridine] came in with an IC50 in assay [1] (Oryctolagus cuniculus) of 17 nM. For the same molecule, the ED50 in assay [2] was 0.019 mg/kg.
